The record followed here is patent US10017492B2 (KANGPU BIOPHARMACEUTICALS, LTD., priority 2014, dated 2018).

In assay [1] the test system is MM.1S cells (myeloma cells). The assay can be described thus: Cell proliferation assay (MTS), MM.1S myeloma cells. It is filed as cell-based. The settings on record: 72 hours, read-out: IC50 values of MMIS Inhibition. A digest of the protocol: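 MM.1S myeloma cells were seeded at 1.8×10^3 per well in RPMI and rested 24 hours before 72 hours of compound exposure at 37° C., 5% CO2, with final DMSO at 0.5%. Viability was read by MTS at OD490 nm, using OD650 nm as reference. IC50 came from variable-slope curves, with the 0.5% DMSO control set as 0% inhibition.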

Assay [2] has as its system WSU-DLCL-2 cells (diffuse large B cell lymphoma cells). The experiment in a line: CTG cell proliferation assay, WSU-DLCL-2 cells. It is filed as cell-based. Particulars: Homo sapiens, WSUDLCL2, WSU-DLCL-2 cells, 72-120 hours, CellTiter-Glo; read-out: IC50 Value of WSU-DLCL2 Inhibition. On the procedure:
(§1) CTG Cell Proliferation Assay
(§2) Rec-1 cells (Mantle cell lymphoma cells) (ATCC, catalog number CRL-3004), Namalwa.CSN/70 cells (Burkitt lymphoma cells) (DSMZ, catalog number ACC-70), and WSU-DLCL-2 cells (diffuse large B cell lymphoma cells) (DSMZ, catalog number ACC-575) were seeded at (5-15)×10^3 per well to a 96-well plate with transparent bottom and white wall (Corning, catalog number CLS3903) containing specific medium. The plate was placed in an incubator and incubated for 24 hours at 37° C. under 5% CO2. Compounds were prepared as 150 mM stock solutions with DMSO (Sigma, catalog number 276855), and were diluted with the medium to the desired concentration (the final concentration of DMSO was 0.2%) and then were added to each well, incubated in an incubator for 72-120 hours at 37° C. under 5% CO2. Then, 100 μl CellTiter-Glo® cell activity assay reagent (Promega, catalog number G7570) was added to each well. Mixing proceeded for 10 minutes on a shaker to induce cytolysis. The 96-well plate was placed at room temperature for 10 minutes to make the luminous signal stable. A white base film was pasted at the bottom of the culture plate. EnSpire was used to test the plate.
(Cellular ATP, detected with luciferase, serves as a proxy for viable cell number.)

Assay [3] relates to Namalwa.CSN/70 cells (Burkitt lymphoma cells). The assay can be described thus: CTG cell proliferation assay, Namalwa.CSN/70 cells. The class given is cell-based. Particulars: 72-120 hours, CellTiter-Glo, read-out: IC50 Value of Namalwa.CSN/70 Inhibition. The protocol: as §1, §2
Assay [4] concerns Rec-1 cells (Mantle cell lymphoma cells). The assay can be described thus: CTG cell proliferation assay, Rec-1 cells. It is filed as cell-based. The settings on record: Homo sapiens, Rec1, 72-120 hours, CellTiter-Glo, read-out: IC50 Value of Rec-1 Inhibition. On the procedure:
as §1, §2

For assay [5], the system named is TNF-α. The experiment in a line: TNF-α activity inhibiting assay (LPS-stimulated peripheral blood, ELISA). The class given is cell-based, human. The settings on record: compound 100 nM, diluted peripheral blood of healthy volunteers, LPS 10 ng/mL, 6 hours; for inhibition at 0.1 µM: Homo sapiens, read-out: Inhibitory Rate on TNF-α (%). A digest of the protocol: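 Human whole blood (EDTA), diluted 5-fold in RPMI 1640, pre-incubated 60 min at 37 °C with compound at 100 nM final (0.2% DMSO), then stimulated 6 h with 10 ng/mL LPS. Supernatant TNF-α measured by ELISA (OD450); inhibition relative to 0.2% DMSO control.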
For orientation: ELISA stands for enzyme-linked immunosorbent assay.

The structures appear in SMILES notation. Read-outs that look alike come from different tables or passages of the source.

On to `COc1ccc(F)c(CNc2cccc3c2CN(C2CCC(=O)NC2=O)C3=O)c1` (stereo not shown) [Compound A195, 3-(4-((2-fluoro-5-methoxybenzyl)amino)-1-oxoisoindolin-2-yl)piperidine-2,6-dione], for which the IC50 was below 300 nM in assay [1] (Homo sapiens, MM1.S); above 300000 nM in assay [2]; above 300000 nM in assay [3]; below 100 nM in assay [4].

Regarding `COc1ccc(COc2cccc3c2CN(C2CCC(=O)NC2=O)C3=O)c(F)c1` (stereo not shown) [Compound A329, 3-(4-((2-fluoro-4-methoxybenzyl)oxy)-1-oxoisoindolin-2-yl)piperidine-2,6-dione], the IC50 in assay [1] (Homo sapiens, MM1.S) was below 300 nM; in assay [2] it was above 300000 nM; in assay [3], 401 to 300000 nM; in assay [4], below 100 nM. The inhibition at 0.1 µM in assay [5] is at least 50%.

On to `COc1cccc(COc2cccc3c2CN(C2CCC(=O)NC2=O)C3=O)c1F` (stereo not shown) [Compound A334, 3-(4-((2-fluoro-3-methoxybenzyl)oxy)-1-oxoisoindolin-2-yl)piperidine-2,6-dione], for which the IC50 is below 300 nM in assay [1] (Homo sapiens, MM1.S); above 300000 nM in assay [2]; above 300000 nM in assay [3]; below 100 nM in assay [4]. The inhibition at 0.1 µM in assay [5] was at least 50%.

Take `[2H][C@]1(N2Cc3c(NCc4ccc(OC)cc4F)cccc3C2=O)CCC(=O)NC1=O` [Compound A356, (S)-3-deuterium-3-(4-((2-fluoro-4-methoxybenzyl)amino)-1-oxoisoindolin-2-yl)piperidine-2,6-dione]: the IC50 in assay [1] (Homo sapiens, MM1.S) is below 300 nM; in assay [2], 401 to 300000 nM; in assay [3], 100 to 400 nM; in assay [4], below 100 nM. Further, in assay [5], the inhibition at 0.1 µM was at least 50%.

For the molecule `[2H][C@]1(N2Cc3c(NCc4cccc(OC)c4F)cccc3C2=O)CCC(=O)NC1=O` [Compound A357, (S)-3-deuterium-3-(4-((2-fluoro-3-methoxybenzyl)amino)-1-oxoisoindolin-2-yl)piperidine-2,6-dione], the IC50 is below 300 nM in assay [1] (Homo sapiens, MM1.S); 401 to 300000 nM in assay [2]; 100 to 400 nM in assay [3]; below 100 nM in assay [4]. In addition, in assay [5], the inhibition at 0.1 µM is at least 50%.

In the case of `O=C1CCC(N2Cc3c(NCc4cccc(CN5CCOCC5)c4F)cccc3C2=O)C(=O)N1` (stereo not shown) [Compound A381, 3-(4-((2-fluoro-3-(morpholinomethyl)benzyl)amino)-1-oxoisoindolin-2-yl)piperidine-2,6-dione], the IC50 in assay [1] (Homo sapiens, MM1.S) is below 300 nM; in assay [2], 401 to 300000 nM; in assay [3], above 300000 nM; in assay [4], below 100 nM. Also, the inhibition at 0.1 µM in assay [5] is at least 50%.

Take `O=C1CCC(N2Cc3c(NCc4ccc(CN5CCOCC5)cc4F)cccc3C2=O)C(=O)N1` (stereo not shown) [Compound A382]: the IC50 in assay [1] (Homo sapiens, MM1.S) was below 300 nM; in assay [2] it was below 100 nM; in assay [3] it was above 300000 nM; in assay [4] it was below 100 nM. In assay [5], the inhibition at 0.1 µM is at least 50%.

Turning to `O=C1CCC(N2Cc3c(NCc4cc(CN5CCOCC5)ccc4F)cccc3C2=O)C(=O)N1` (stereo not shown) [Compound A383, 3-(4-((2-fluoro-5-(morpholinomethyl)benzyl)amino)-1-oxoisoindolin-2-yl)piperidine-2,6-dione], the IC50 in assay [1] (Homo sapiens, MM1.S) is below 300 nM; in assay [2], 401 to 300000 nM; in assay [3], above 300000 nM; in assay [4], 100 to 400 nM. Besides, in assay [5], the inhibition at 0.1 µM was at least 50%.

For `O=C1CCC(N2Cc3c(OCc4ccc(CN5CCOCC5)cc4F)cccc3C2=O)C(=O)N1` (stereo not shown) [Compound A386, 3-(4-((2-fluoro-4-(morpholinomethyl)benzyl)oxy)-1-oxoisoindolin-2-yl)piperidine-2,6-dione], the IC50 is below 300 nM in assay [1] (Homo sapiens, MM1.S); below 100 nM in assay [2]; above 300000 nM in assay [3]; below 100 nM in assay [4]. The inhibition at 0.1 µM in assay [5] was at least 50%.

On to `O=C1CCC(N2Cc3c(OCc4cccc(CN5CCOCC5)c4F)cccc3C2=O)C(=O)N1` (stereo not shown) [Compound A399, 3-(4-((2-fluoro-3-(morpholinomethyl)benzyl)oxy)-1-oxoisoindolin-2-yl)piperidine-2,6-dione], for which the IC50 is below 300 nM in assay [1] (Homo sapiens, MM1.S); 401 to 300000 nM in assay [2]; above 300000 nM in assay [3]; below 100 nM in assay [4]. For the same molecule, the inhibition at 0.1 µM in assay [5] was at least 50%.

As for `[2H][C@]1(N2Cc3c(NCc4cccc(CN5CCOCC5)c4F)cccc3C2=O)CCC(=O)NC1=O` [Compound A400, (S)-3-deuterium-3-(4-((2-fluoro-3-(morpholinomethyl)benzyl)amino)-1-oxoisoindolin-2-yl)piperidine-2,6-dione], the IC50 was below 300 nM in assay [1] (Homo sapiens, MM1.S); 401 to 300000 nM in assay [2]; above 300000 nM in assay [3]; 100 to 400 nM in assay [4]. The inhibition at 0.1 µM in assay [5] was at least 50%.

As to `[2H][C@]1(N2Cc3c(NCc4cc(CN5CCOCC5)ccc4F)cccc3C2=O)CCC(=O)NC1=O` [Compound A401, (S)-3-deuterium-3-(4-((2-fluoro-5-(morpholinomethyl)benzyl)amino)-1-oxoisoindolin-2-yl)piperidine-2,6-dione], the IC50 in assay [1] (Homo sapiens, MM1.S) was below 300 nM. The inhibition at 0.1 µM in assay [5] is at least 50%.

In the case of `[2H][C@]1(N2Cc3c(NCc4ccc(CN5CCOCC5)cc4F)cccc3C2=O)CCC(=O)NC1=O` [Compound A402], the IC50 is below 300 nM in assay [1] (Homo sapiens, MM1.S); below 100 nM in assay [2]; above 300000 nM in assay [3]; below 100 nM in assay [4]. Besides, in assay [5], the inhibition at 0.1 µM was at least 50%.

With `[2H][C@]1(N2Cc3c(OCc4cc(CN5CCOCC5)ccc4F)cccc3C2=O)CCC(=O)NC1=O` [Compound A403, (S)-3-deuterium-3-(4-((2-fluoro-5-(morpholinomethyl)benzyl)oxy)-1-oxoisoindolin-2-yl)piperidine-2,6-dione], the IC50 is below 300 nM in assay [1] (Homo sapiens, MM1.S); 401 to 300000 nM in assay [2]; above 300000 nM in assay [3]; below 100 nM in assay [4]. The inhibition at 0.1 µM in assay [5] was at least 50%.

For `[2H][C@]1(N2Cc3c(OCc4cccc(CN5CCOCC5)c4F)cccc3C2=O)CCC(=O)NC1=O` [Compound A404, (S)-3-deuterium-3-(4-((2-fluoro-3-(morpholinomethyl)benzyl)oxy)-1-oxoisoindolin-2-yl)piperidine-2,6-dione], the IC50 in assay [1] (Homo sapiens, MM1.S) was below 300 nM; in assay [2], 401 to 300000 nM; in assay [3], above 300000 nM; in assay [4], below 100 nM. In addition, the inhibition at 0.1 µM in assay [5] is at least 50%.

For `O=C1CCC(N2Cc3c(NCc4ccc(CN5CCOCC5)cc4)cc(F)cc3C2=O)C(=O)N1` (stereo not shown) [Compound A405, 3-(6-fluoro-4-((4-(morpholinomethyl)benzyl)amino)-1-oxoisoindolin-2-yl)piperidine-2,6-dione], the IC50 in assay [1] (Homo sapiens, MM1.S) was at least 300 nM. Besides, the inhibition at 0.1 µM in assay [5] was below 50%.

In the case of `[2H][C@]1(N2Cc3c(OCc4ccc(CN5CCOCC5)cc4F)cccc3C2=O)CCC(=O)NC1=O` [Compound A406, (S)-3-deuterium-3-(4-((2-fluoro-4-(morpholinomethyl)benzyl)oxy)-1-oxoisoindolin-2-yl)piperidine-2,6-dione], the IC50 is below 300 nM in assay [1] (Homo sapiens, MM1.S); below 100 nM in assay [2]; above 300000 nM in assay [3]; below 100 nM in assay [4]. Also, in assay [5], the inhibition at 0.1 µM is at least 50%.

With `O=C1CCC(N2Cc3c(OCc4ccc(CN5CCOCC5)cc4F)cc(F)cc3C2=O)C(=O)N1` (stereo not shown) [Compound A407], the IC50 in assay [1] (Homo sapiens, MM1.S) was below 300 nM; in assay [2], 401 to 300000 nM; in assay [3], above 300000 nM; in assay [4], below 100 nM. In addition, in assay [5], the inhibition at 0.1 µM was below 50%.

On to `[2H]C1(N2Cc3c(OCc4ccc(CN5CCOCC5)cc4F)cccc3C2=O)CCC(=O)NC1=O` (stereo not shown) [Compound A425, 3-deuterium-3-(4-((2-fluoro-5-(morpholinomethyl)benzyl)oxy)-1-oxoisoindolin-2-yl)piperidine-2,6-dione], for which the IC50 in assay [1] is below 300 nM. Further, in assay [5], the “Inhibitory Rate on TNF-α (%)” value is listed as at least 50%.

Regarding `[2H]C1(N2Cc3c(NCc4ccc(CN5CCOCC5)cc4F)cccc3C2=O)CCC(=O)NC1=O` (stereo not shown) [Compound A426], the IC50 in assay [1] was below 300 nM. In assay [5], the “Inhibitory Rate on TNF-α (%)” value is listed as at least 50%.

In the case of `Nc1cc(F)cc2c1CN([C@@H]1CCC(=O)NC1=O)C2=O` [Compound I-30], the IC50 in assay [1] (Homo sapiens, MM1.S) is below 300 nM; in assay [2], above 300000 nM; in assay [3], above 300000 nM; in assay [4], below 100 nM.
